Assay results as given in paper PMC12073449, “Development of a Mechanism of Action-Reflective Cell-Based Reporter Gene Assay for Measuring Bioactivities of Therapeutic Glucagon-like Peptide-2 Analogues” (Molecules, 2025).
Ends that are not written are not given here.

System: HEK293-GLP-2R-Luc cells

Substance: HGEGTFSSELATILDALAARDFINWLIATKITDKKKKKK-NH2 [glepaglutide]
- log2 (TD/Ctrl) CACNB1 (Qvalue 4.04 × 10^−5): 1.075
- log2 (TD/Ctrl) CHAC1 (Qvalue 4.05 × 10^−4): 1.141
- log2 (TD/Ctrl) PDK4 (Qvalue 4.05 × 10^−7): 1.463
- log2 (TD/Ctrl) GUCY1A1 (Qvalue 4.19 × 10^−5): −1.107
- log2 (TD/Ctrl) SNAP25 (Qvalue 4.24 × 10^−5): 1.698
- log2 (TD/Ctrl) CALCB (Qvalue 4.28 × 10^−58): 3.658
- log2 (TD/Ctrl) PDE8B (Qvalue 4.35 × 10^−6): 1.08
- log2 (TD/Ctrl) FAM86B2 (Qvalue 4.40 × 10^−6): 1.144
- log2 (TD/Ctrl) CD55 (Qvalue 4.43 × 10^−29): 1.554
- log2 (TD/Ctrl) PDE10A (Qvalue 4.45 × 10^−11): 1.052
- log2 (TD/Ctrl) IGFBP5 (Qvalue 4.48 × 10^−29): −1.803
- log2 (TD/Ctrl) PPP1R15A (Qvalue 4.52 × 10^−19): 1.729
- log2 (TD/Ctrl) FAM131B (Qvalue 4.57 × 10^−4): 2.284
- log2 (TD/Ctrl) DCLK1 (Qvalue 4.77 × 10^−6): 1.118
- log2 (TD/Ctrl) ARC (Qvalue 4.77 × 10^−21): 2.548
- log2 (TD/Ctrl) TRMT11 (Qvalue 4.83 × 10^−7): 1.007
- log2 (TD/Ctrl) BRSK1 (Qvalue 4.84 × 10^−4): 1.033
- log2 (TD/Ctrl) CXCL8 (Qvalue 4.89 × 10^−10): 2.264
- log2 (TD/Ctrl) MMP10 (Qvalue 4.91 × 10^−4): 2.63
- log2 (TD/Ctrl) NTS (Qvalue 4.98 × 10^−8): 3.901
- log2 (TD/Ctrl) INKA2 (Qvalue 5.19 × 10^−4): −1.14
- log2 (TD/Ctrl) RSRC2 (Qvalue 5.28 × 10^−10): 1.09
- log2 (TD/Ctrl) PCDH9 (Qvalue 5.30 × 10^−8): −1.158
- log2 (TD/Ctrl) NCOA5 (Qvalue 5.31 × 10^−8): −1.2433
- log2 (TD/Ctrl) PROCR (Qvalue 5.32 × 10^−8): 1.201
- log2 (TD/Ctrl) AVPI1 (Qvalue 5.33 × 10^−8): 1.192
- log2 (TD/Ctrl) IL12A (Qvalue 5.36 × 10^−4): 1.606
- log2 (TD/Ctrl) CCN2 (Qvalue 5.36 × 10^−15): 2.558
- log2 (TD/Ctrl) PCSK1 (Qvalue 5.37 × 10^−34): 5.002
- log2 (TD/Ctrl) HSPB8 (Qvalue 5.44 × 10^−4): 1.961
- log2 (TD/Ctrl) CHGB (Qvalue 5.45 × 10^−20): 3.305
- log2 (TD/Ctrl) LY6K (Qvalue 5.54 × 10^−6): 2.444
- log2 (TD/Ctrl) TNFRSF10D (Qvalue 5.55 × 10^−11): −1.432
- log2 (TD/Ctrl) RNF122 (Qvalue 5.63 × 10^−24): 1.985
- log2 (TD/Ctrl) PAPPA (Qvalue 5.75 × 10^−4): 1.578
- log2 (TD/Ctrl) CTH (Qvalue 5.77 × 10^−13): 1.317
- log2 (TD/Ctrl) ETV5 (Qvalue 5.77 × 10^−17): 1.932
- log2 (TD/Ctrl) FOSL1 (Qvalue 5.84 × 10^−23): 3.193
- log2 (TD/Ctrl) UBE2QL1 (Qvalue 5.89 × 10^−10): 1.897
- log2 (TD/Ctrl) PCK1 (Qvalue 5.99 × 10^−8): 4.954
- log2 (TD/Ctrl) SYAP1 (Qvalue 6.03 × 10^−37): 1.501
- log2 (TD/Ctrl) ADAMTS1 (Qvalue 6.10 × 10^−16): 1.32
- log2 (TD/Ctrl) TSPAN18 (Qvalue 6.12 × 10^−5): 1.221
- log2 (TD/Ctrl) ZNF697 (Qvalue 6.15 × 10^−17): 1.651
- log2 (TD/Ctrl) NME1-NME2 (Qvalue 6.18 × 10^−4): 1.069
- log2 (TD/Ctrl) TAF1D (Qvalue 6.18 × 10^−6): 1.001
- log2 (TD/Ctrl) GAB2 (Qvalue 6.27 × 10^−10): 1.866
- log2 (TD/Ctrl) ZNF718 (Qvalue 6.33 × 10^−4): −1.3027
- log2 (TD/Ctrl) OMA1 (Qvalue 6.34 × 10^−6): −1.165
- log2 (TD/Ctrl) EPHA7 (Qvalue 6.41 × 10^−18): −1.443
- log2 (TD/Ctrl) NR4A3 (Qvalue 6.44 × 10^−8): 1.795
- log2 (TD/Ctrl) AREG (Qvalue 6.48 × 10^−5): 3.509
- log2 (TD/Ctrl) ZCCHC12 (Qvalue 6.60 × 10^−42): 2.11
- log2 (TD/Ctrl) CHMP1B (Qvalue 6.69 × 10^−14): 1.048
- log2 (TD/Ctrl) KBTBD7 (Qvalue 6.73 × 10^−6): −1.122
- log2 (TD/Ctrl) FAM200C (Qvalue 6.74 × 10^−4): −1.19
- log2 (TD/Ctrl) EGR1 (Qvalue 6.76 × 10^−10): 2.978
- log2 (TD/Ctrl) PLAUR (Qvalue 6.86 × 10^−10): 1.559
- log2 (TD/Ctrl) MAP2K6 (Qvalue 6.95 × 10^−9): −1.348
- log2 (TD/Ctrl) NR4A2 (Qvalue 7.07 × 10^−23): 2.428
- log2 (TD/Ctrl) P2RY11 (Qvalue 7.12 × 10^−9): −9.7959
- log2 (TD/Ctrl) CARMIL2 (Qvalue 7.13 × 10^−10): 1.753
- log2 (TD/Ctrl) COL7A1 (Qvalue 7.17 × 10^−4): −1.612
- log2 (TD/Ctrl) KRT17 (Qvalue 7.46 × 10^−4): 3.685
- log2 (TD/Ctrl) PTRH1 (Qvalue 7.65 × 10^−4): 1.322
- log2 (TD/Ctrl) CBARP (Qvalue 7.76 × 10^−5): 1.225
- log2 (TD/Ctrl) ZBTB12 (Qvalue 7.78 × 10^−9): −1.6
- log2 (TD/Ctrl) CGA (Qvalue 7.84 × 10^−76): 7.042
- log2 (TD/Ctrl) SERPINE2 (Qvalue 7.93 × 10^−10): 1.136
- log2 (TD/Ctrl) GABARAPL1 (Qvalue 8.03 × 10^−15): 1.405
- log2 (TD/Ctrl) COL1A1 (Qvalue 8.07 × 10^−20): 1.91
- log2 (TD/Ctrl) NDRG4 (Qvalue 8.22 × 10^−4): 1.306
- log2 (TD/Ctrl) QRICH2 (Qvalue 8.25 × 10^−6): −1.253
- log2 (TD/Ctrl) CD24 (Qvalue 8.27 × 10^−27): 2.289
- log2 (TD/Ctrl) ZNF331 (Qvalue 8.43 × 10^−12): 1.041
- log2 (TD/Ctrl) FZD4 (Qvalue 8.54 × 10^−5): −1.071
- log2 (TD/Ctrl) RGS6 (Qvalue 8.61 × 10^−5): 4.489
- log2 (TD/Ctrl) NR4A1 (Qvalue 8.67 × 10^−7): 4.426
- log2 (TD/Ctrl) BMPER (Qvalue 8.87 × 10^−4): 2.13
- log2 (TD/Ctrl) IER2 (Qvalue 9.14 × 10^−13): 1.167
- log2 (TD/Ctrl) INHBA (Qvalue 9.22 × 10^−49): 4.678
- log2 (TD/Ctrl) SERPINB9 (Qvalue 9.32 × 10^−11): 1.4
- log2 (TD/Ctrl) GADD45B (Qvalue 9.33 × 10^−42): 1.995
- log2 (TD/Ctrl) FAM111B (Qvalue 9.51 × 10^−4): −1.222
- log2 (TD/Ctrl) FHL2 (Qvalue 9.62 × 10^−6): 1.082
- log2 (TD/Ctrl) NFKB2 (Qvalue 9.77 × 10^−25): 1.551
- log2 (TD/Ctrl) EDA2R (Qvalue 9.85 × 10^−6): −1.374
- log2 (TD/Ctrl) EGR3 (Qvalue 9.86 × 10^−8): 2.228
- log2 (TD/Ctrl) LAMB3 (Qvalue 9.88 × 10^−5): 1.323
- log2 (TD/Ctrl) SAP30L (Qvalue 9.88 × 10^−7): −1.0123
- log2 (TD/Ctrl) SCARA5 (Qvalue […] 10^−12): 3.284
- log2 (TD/Ctrl) GCNA (Qvalue […] 10^−17): 1.602
- log2 (TD/Ctrl) TAC1 (Qvalue […] 10^−76): 4.689
